≈ marks a conversion by molar mass, not a printed value.
Columns and labels:
[1] = physchem; conditions: octan-1-ol/water, pH 7.4, LogD7.4
[2] = physchem; conditions: pH 7.4 buffer

Compound	logD [1]	solubility thermodynamic [2] [µM]
COc1ccc(Nc2cc(Nc3ccc(OCC(O)CN(C)C)cc3)ncn2)cc1 (configuration not stated)	1.5	12 (≈ 4.91 µg/mL)
CCOC(=O)N1CCN(C(=O)[C@H](Cc2cccc(C(=N)N)c2)NS(=O)(=O)c2c(C(C)C)cc(C(C)C)cc2C(C)C)CC1	1.67	692 (≈ 425 µg/mL)
O=C(O)CC(=O)N[C@@H]1c2ccccc2C[C@H]1NC(=O)c1cc2sc(Cl)c(Cl)c2[nH]1	1.18	1170 (≈ 531 µg/mL)
CCc1ccc(NC(=O)c2ccc3cc(C(=N)N)ccc3c2)cc1	1.1	8.5 (≈ 2.7 µg/mL)
Cc1cc(NC(=O)c2ccccc2)n[nH]1	1.75	813 (≈ 164 µg/mL)
Cc1nc(CS(=O)(=O)c2ccc(Cl)cc2)cc(N2CCOCC2)n1	1.8	224 (≈ 82.4 µg/mL)
Cc1onc(CO)c1C(=O)Nc1nccs1	1.53	144 (≈ 34.6 µg/mL)
O=S(=O)(c1cccc(-c2cn3cccnc3n2)c1)N1CCOCC1	1.3	39.8 (≈ 13.7 µg/mL)
CCOC(=O)Cc1csc(NS(=O)(=O)c2ccc(Cl)cc2)n1	1.32	417 (≈ 150 µg/mL)
Oc1cc(OCc2ccccc2)ccn1	1.69	1230 (≈ 248 µg/mL)
O=C1CN(C(=O)c2ccco2)c2ccccc2N1	1.21	269 (≈ 65.2 µg/mL)
CNC(=O)c1ccc2c(=O)cc(-c3cccnc3)[nH]c2c1	1.01	309 (≈ 86.3 µg/mL)
CC(=O)c1ccc2[nH]c(-c3cccnc3)cc(=O)c2c1	1.41	126 (≈ 33.3 µg/mL)
Cc1nc2nc(-c3cccnc3)nn2c(O)c1Cc1ccccc1	1.52	29.5 (≈ 9.36 µg/mL)
COC[C@H](C)Oc1cc(Oc2cc(F)cc(F)c2)cc(C(=O)Nc2ccc(C(=O)O)cn2)c1	1.36	832 (≈ 381 µg/mL)
Cc1cc(CCC2CCN(S(=O)(=O)CC3(N(O)C=O)CCOCC3)CC2)c(C)cn1	1.43	1100 (≈ 482 µg/mL)
O=CN(O)C1(CS(=O)(=O)N2CCN(c3ccc(F)cc3)CC2)CCC1	1.34	490 (≈ 182 µg/mL)
O=CN(O)C1(CS(=O)(=O)N2CCN(c3ccc(F)cc3)CC2)CCOCC1	0.85	1380 (≈ 554 µg/mL)
Cc1cn(C[C@H]2CN(c3ccc(C4=CCS(=O)(=O)CC4)c(F)c3)C(=O)O2)nn1	1.25	372 (≈ 151 µg/mL)
COc1cc(OC2CCNCC2)ccc1Nc1ncc(Cl)c(-c2cnc3ccccn23)n1	1.8	30.9 (≈ 13.9 µg/mL)
CC1CN(C(=O)c2ccccc2)c2ccccc2NC1=O (configuration not stated)	1.73	1200 (≈ 337 µg/mL)
Cc1ccc(S(=O)(=O)Nc2c(C(=O)NC3CCCCC3)cnn2-c2ccccc2)cc1	0.8	490 (≈ 215 µg/mL)

Compound	logD [1]	solubility thermodynamic [2] [µM]
CNc1cccc(CCCc2ccc(C[C@H](NC(=O)c3c(Cl)cccc3Cl)C(=O)O)s2)n1	0.78	331 (≈ 163 µg/mL)
Cc1ccc(NC(=O)c2cccnc2)cc1-n1cnc2ccc(N3CCN(C)CC3)cc2c1=O	1.5	251 (≈ 114 µg/mL)
O=C(Nc1nnc(C(=O)Nc2ccc(N3CCOCC3)cc2)o1)c1ccccc1	1.02	105 (≈ 41.2 µg/mL)
CNC(=O)Nc1nc2ccc(-c3cncc(S(=O)(=O)NC(C)(C)C)c3)cn2n1	1.58	87.1 (≈ 35.1 µg/mL)
COc1cc(OC)nc(-n2ncc(Cl)c(Cl)c2=O)n1	1.4	70.8 (≈ 21.5 µg/mL)
CCCSc1nc(Oc2ccc(CC(=O)O)cc2)ccc1C(=O)NC1CCCCC1	1.79	550 (≈ 235 µg/mL)
CCCSc1nc(N2CCC(C(=O)O)CC2)ccc1C(=O)NC1CCCCC1	1.6	309 (≈ 125 µg/mL)
CS(=O)(=O)c1ccc2[nH]c3c(c2c1)CN(C(=O)[C@@H]1CCCC[C@H]1C(=O)NC1(C#N)CC1)CC3	1.5	190 (≈ 89.3 µg/mL)
Cc1nc(C)c(-c2ccc(C34CCC(CC(=O)O)(CC3)CC4)cc2)nc1C(N)=O	1.6	112 (≈ 44.1 µg/mL)
Cc1nc(C)c(-c2ccc([C@H]3CC[C@H](CCC(=O)O)CC3)cc2)nc1C(N)=O	1.6	200 (≈ 76.1 µg/mL)
Cc1nc(C)c(-c2ccc([C@H]3CC[C@H](CC(=O)O)CC3)c(Cl)c2)nc1C(N)=O	1.8	209 (≈ 84 µg/mL)
Cc1nc(C)c(-c2ccc([C@H]3CC[C@@H](CC(=O)O)CC3)c(F)c2)nc1C(N)=O	1.2	759 (≈ 292 µg/mL)
Cc1nc(C)c(-c2ccc([C@H]3CC[C@@H](CC(=O)O)CC3)c(Cl)c2)nc1C(N)=O	1.7	200 (≈ 80.2 µg/mL)
Cc1ncc(-c2ccc([C@H]3CC[C@H](CC(=O)O)CC3)cc2)nc1C(N)=O	1	372 (≈ 131 µg/mL)
CN1CC(n2nccc2-c2cc(Cl)ccc2Oc2cc(F)c(S(=O)(=O)Nc3ncns3)cc2F)C1	1	47.9 (≈ 25.8 µg/mL)
CNC(=O)c1cc(-c2nc(N3CCOCC3)cc(C3(S(C)(=O)=O)CC3)n2)c2cc[nH]c2c1	1.7	46.8 (≈ 21.3 µg/mL)
CCCNCc1cnc(-c2ccc(C(=O)Nc3ccccc3N)cc2)s1	1.75	676 (≈ 248 µg/mL)
Cn1sc(NCc2ccccc2)nc1=O	1.2	1510 (≈ 335 µg/mL)
O=c1[nH][nH]c(=O)c2c1[nH]c1cc(Cl)cc(Cl)c12	1.02	57.5 (≈ 15.5 µg/mL)
CCN(CC)C(=O)Cc1csc(NS(=O)(=O)c2cccc(Cl)c2C)n1	1.67	40.7 (≈ 16.4 µg/mL)
Cc1c(CCC(=O)O)c[nH]c1/C=C1\C(=O)Nc2ccccc21	1.05	209 (≈ 61.9 µg/mL)
CSc1ccc(OCc2ccccc2)c(C(=O)Nc2ccc(C(=O)O)cn2)c1	1.6	200 (≈ 78.7 µg/mL)

Compound	logD [1]	solubility thermodynamic [2] [µM]
CC(C)Oc1cc(OCCc2ccsc2)cc(C(=O)Nc2ccc(C(=O)O)cn2)c1	1.74	33.9 (≈ 14.5 µg/mL)
CC(C)COc1cc(OC(C)C)cc(C(=O)Nc2ccc(C(=O)O)cn2)c1	1.6	190 (≈ 70.9 µg/mL)
CCc1cc(OCc2ccc(-c3ccccc3-c3nnn[nH]3)cc2)c2c(n1)CCCC2	1.7	23.4 (≈ 9.63 µg/mL)
NC(=O)Nc1sc(-c2ccc(CNC3CCCC3)cc2)cc1C(N)=O	1.22	479 (≈ 172 µg/mL)
CCn1c2nc(=O)n(C)c(=O)c-2cc2ccccc21	1.1	324 (≈ 82.6 µg/mL)
CC1(C)Oc2ncnc(N)c2N=C1c1ccc([C@H]2CC[C@H](CC(=O)O)CC2)cc1	1.32	118 (≈ 46.4 µg/mL)
Nc1nccc(-c2c[nH]c3ccccc23)n1	1.68	575 (≈ 121 µg/mL)
Cc1ncc(-c2ccnc(Nc3ccc(S(N)(=O)=O)cc3)n2)n1C	1.6	36.3 (≈ 12.5 µg/mL)
O=C(c1cc(Cc2n[nH]c(=O)c3ccccc23)ccc1F)N1CCN(C(=O)C2CCOC2)CC1 (configuration not stated)	0.8	380 (≈ 177 µg/mL)
Nc1nc(N)c2nc(-c3ccccc3)c(N)nc2n1	1.16	97.7 (≈ 24.7 µg/mL)
CC1(C)N=C(N)N=C(N)N1c1ccc(Oc2ccc(Cl)cc2)c(Cl)c1	0.79	372 (≈ 141 µg/mL)
CS(=O)(=O)c1ccc(C(=O)Nc2ccc(F)cc2)c[n+]1[O-]	0.84	219 (≈ 67.9 µg/mL)
COc1cc(C(=O)NS(=O)(=O)c2ccccc2)ccc1Cn1ncc2ccc(NC(=O)CC3CCCC3)cc21	1.6	251 (≈ 137 µg/mL)
Cc1c[nH]c(/C=C2\C(=O)Nc3ccccc32)c1CCC(=O)O	1.2	447 (≈ 132 µg/mL)
CN(C)CC(O)COc1ccc(Nc2nccc(Nc3ccccc3C#N)n2)cc1 (configuration not stated)	1.2	1100 (≈ 444 µg/mL)
Nc1cccc(NC(=O)c2ccc(CNC(=O)OCc3cccnc3)cc2)c1	1.6	21.9 (≈ 8.24 µg/mL)
Nc1ccc(OCc2ccccc2)cc1 [4-BENZYLOXYANILINE]	2.2	468 (≈ 93.2 µg/mL)
Nc1ncnc2c1ncn2Cc1ccccc1 [9-BENZYL-9H-ADENINE]	1.53	246 (≈ 55.3 µg/mL)
CN(C)C/C=C/C(=O)Nc1cc2c(Nc3ccc(F)c(Cl)c3)ncnc2cc1O[C@H]1CCOC1 [AFATINIB]	3.7	93.3 (≈ 45.3 µg/mL)
Nc1ncnc(Nc2ccccc2)n1 [AMANOZINE]	1.4	246 (≈ 46 µg/mL)
O=C1CN2Cc3c(ccc(Cl)c3Cl)N=C2N1 [ANAGRELIDE]	1.86	5.4 (≈ 1.38 µg/mL)
CNC(=O)c1ccccc1Sc1ccc2c(/C=C/c3ccccn3)n[nH]c2c1 [AXITINIB]	3.8	0.5 (≈ 0.193 µg/mL)
